Like-named read-outs stand apart in the source and are kept apart here.
Key:
Experiment in all cases: MIC of β-lactams alone or with 50 µM IDACYD against clinical isolates
Assay type in all cases: cell-based
Klebsiella pneumoniae = conditions: for MIC: Klebsiella pneumoniae, alone; for Imipenem + α-IDACYD MIC / Meropenem + α-IDACYD MIC: IDACYD 50 μM
Protocol: Further the in-vitro inhibitory activity of IDACYDs was tested against highly resistant pathogens. […] Table 2: Collection of clinical isolates used for in-vitro evaluation

Providencia stuartii = conditions: Providencia stuartii, alone
Protocol: (§1) Further the in-vitro inhibitory activity of IDACYDs was tested against highly resistant pathogens. Tables 3, 4 and 5 show the effect of IDACYDs using a collection of 36 highly resistant Gram negative strains (Table 2, Kirby-Bauer disc diffusion method) producing NDM, VIM and IMP type MBLs as well as 6 isolates expressing serine beta-lactamases (ESBLs, AmpCs). […] Clinical isolates co-expressing ESBLs and/or AmpC β-lactamases along with MBLs where re-sensitized to both imipenem and meropenem, as expected. Table 2: Collection of clinical isolates used for in-vitro evaluation

Escherichia coli = conditions: Escherichia coli, alone
Protocol: as §1

Serratia marcescens = conditions: Serratia marcescens, isolate EUG-815 (VIM, CMY), alone
Protocol: as §1

Proteus mirabilis = conditions: Proteus mirabilis, alone
Protocol: as §1

Acinetobacter baumannii = conditions: Acinetobacter baumannii, alone, read-out: Imipenem MIC
Protocol: as §1

Enterobacter gergoviae = conditions: Pluralibacter gergoviae, alone, read-out: Imipenem MIC
Protocol: as §1

CC(C)(O/N=C(\C(=O)N[C@@H]1C(=O)N2C(C(=O)[O-])=C(C[n+]3ccccc3)CS[C@H]12)c1csc(N)n1)C(=O)O [Ceftazidime, reference compound]
MIC (Klebsiella pneumoniae; isolate ALX-47 (OXA-48,CTX-M), read-out: Ceftazidime MIC): > 256 µg/mL | MIC (Klebsiella pneumoniae; isolate ESDY-5742 (IMP), read-out: Ceftazidime MIC): > 256 µg/mL | MIC (Klebsiella pneumoniae; isolate LA-28 (NDM, CTXM), read-out: Ceftazidime MIC): > 256 µg/mL | MIC (Klebsiella pneumoniae; isolate LA-82/16 (VIM, SHV), read-out: Ceftazidime MIC): > 256 µg/mL | MIC (Klebsiella pneumoniae; isolate LA-109/16 (VIM, CTXM), read-out: Ceftazidime MIC): > 256 µg/mL | MIC (Klebsiella pneumoniae; isolate LAR-4011/15, read-out: Ceftazidime MIC): 32 µg/mL | MIC (Klebsiella pneumoniae; isolate UoA 12/227 (VIM), read-out: Ceftazidime MIC): > 256 µg/mL | MIC (Klebsiella pneumoniae; isolate UoA 1995 (VIM), read-out: Ceftazidime MIC): > 256 µg/mL | MIC (Providencia stuartii; isolate ALX- 21 (VIM, VEB), read-out: Ceftazidime MIC): 128 µg/mL | MIC (Providencia stuartii; isolate ESDY-4559 (VIM), read-out: Ceftazidime MIC): 8 µg/mL | MIC (Escherichia coli; isolate TZAN-116 (VIM), read-out: Ceftazidime MIC): > 256 µg/mL | MIC (Serratia marcescens; read-out: Ceftazidime MIC): > 256 µg/mL | MIC (Proteus mirabilis; isolate ESDY-15184 (VIM, CMY), read-out: Ceftazidime MIC): > 256 µg/mL

C[C@@H](O)[C@H]1C(=O)N2C(C(=O)O)=C(SCCN=CN)C[C@H]12 [Imipenem, reference compound]
MIC (Klebsiella pneumoniae; Table 5, Kpn ESDY 5742 (IMP-1), read-out: Imipenem MIC): 8 µg/mL | MIC (Klebsiella pneumoniae; Table 5, Kpn LA 26 (NDM-1), read-out: Imipenem MIC): 16 µg/mL | MIC (Klebsiella pneumoniae; Table 5, Kpn LA 34 (VIM-1 CMY), read-out: Imipenem MIC): 16 µg/mL | MIC (Klebsiella pneumoniae; Table 5, Kpn LA 82/16 (VIM-1), read-out: Imipenem MIC): 64 µg/mL | MIC (Klebsiella pneumoniae; Table 5, Kpn LA 109/16 (VIM-1), read-out: Imipenem MIC): 16 µg/mL | MIC (Klebsiella pneumoniae; Table 5, Kpn LA419/16 (NDM-1), read-out: Imipenem MIC): 8 µg/mL | MIC (Klebsiella pneumoniae; Table 5, Kpn LAR 37II/15 (NDM-1, VIM-1, CTXM), read-out: Imipenem MIC): 64 µg/mL | MIC (Klebsiella pneumoniae; isolate 6/100 (VIM), read-out: Imipenem MIC): 32 µg/mL | MIC (Klebsiella pneumoniae; isolate 2489 (NDM), read-out: Imipenem MIC): 32 µg/mL | MIC (Klebsiella pneumoniae; isolate 2685 (VIM, CMY, CTXM), read-out: Imipenem MIC): 32 µg/mL | MIC (Klebsiella pneumoniae; isolate ALX-47 (OXA-48,CTX-M), read-out: Imipenem MIC): 4 µg/mL | MIC (Klebsiella pneumoniae; isolate ESDY-1780 (VIM, KPC), read-out: Imipenem MIC): 16 µg/mL | MIC (Klebsiella pneumoniae; isolate ESDY-2681 (VIM-27), read-out: Imipenem MIC): 16 µg/mL | MIC (Klebsiella pneumoniae; isolate ESDY-5742 (IMP), read-out: Imipenem MIC): 8 µg/mL | MIC (Klebsiella pneumoniae; isolate EY-20S (CMY, SHV), read-out: Imipenem MIC): 2 µg/mL | MIC (Klebsiella pneumoniae; isolate IT-17829 (CTXM, SHV), read-out: Imipenem MIC): 1 µg/mL | MIC (Klebsiella pneumoniae; isolate L078/11 (KPC), read-out: Imipenem MIC): 32 µg/mL | MIC (Klebsiella pneumoniae; isolate LA-26 (NDM), read-out: Imipenem MIC): 16 µg/mL | MIC (Klebsiella pneumoniae; isolate LA-27 (NDM, CTXM), read-out: Imipenem MIC): 8 µg/mL | MIC (Klebsiella pneumoniae; isolate LA-28 (NDM, CTXM), read-out: Imipenem MIC): 8 µg/mL | MIC (Klebsiella pneumoniae; isolate LA-34 (VIM, CMY), first entry of Table 3, read-out: Imipenem MIC): 32 µg/mL | MIC (Klebsiella pneumoniae; isolate LA-34 (VIM, CMY), second entry of Table 3, read-out: Imipenem MIC): 32 µg/mL | MIC (Klebsiella pneumoniae; isolate LA-38 (NDM), read-out: Imipenem MIC): 8 µg/mL | MIC (Klebsiella pneumoniae; isolate LA-82/16 (VIM, SHV), read-out: Imipenem MIC): 8 µg/mL | MIC (Klebsiella pneumoniae; isolate LA-109/16 (VIM, CTXM), read-out: Imipenem MIC): 16 µg/mL | MIC (Klebsiella pneumoniae; isolate LA-419/16 (NDM,CTXM), read-out: Imipenem MIC): 4 µg/mL | MIC (Klebsiella pneumoniae; isolate LA-470/17 (NDM), read-out: Imipenem MIC): 8 µg/mL | MIC (Klebsiella pneumoniae; isolate LAR-26I/15 (NDM, VIM, CTXM), read-out: Imipenem MIC): 16 µg/mL | MIC (Klebsiella pneumoniae; isolate LAR-37II/15 (NDM, VIM, CTXM), read-out: Imipenem MIC): 64 µg/mL | MIC (Klebsiella pneumoniae; isolate LAR-38I/15 (VIM, NDM, CTXM), read-out: Imipenem MIC): 4 µg/mL | MIC (Klebsiella pneumoniae; isolate LAR-40II/15 (KPC), read-out: Imipenem MIC): 16 µg/mL | MIC (Klebsiella pneumoniae; isolate LAR-2873 (VIM-12), read-out: Imipenem MIC): 4 µg/mL | MIC (Klebsiella pneumoniae; isolate LAR-7547 (NDM, VIM, CTXM), read-out: Imipenem MIC): 64 µg/mL | MIC (Klebsiella pneumoniae; isolate SEC-2 (VIM), read-out: Imipenem MIC): 32 µg/mL | MIC (Klebsiella pneumoniae; isolate SEC-4 (VIM), read-out: Imipenem MIC): 64 µg/mL | MIC (Klebsiella pneumoniae; isolate TZAN-59 (β-lactamase: None), read-out: Imipenem MIC): 1 µg/mL | MIC (Klebsiella pneumoniae; isolate UoA 12/227 (VIM), read-out: Imipenem MIC): 8 µg/mL | MIC (Klebsiella pneumoniae; isolate UoA 1995 (VIM), read-out: Imipenem MIC): 8 µg/mL | MIC (Providencia stuartii; isolate ALX- 21 (VIM, VEB), read-out: Imipenem MIC): 8 µg/mL | MIC (Providencia stuartii; isolate ALX-27 (VIM), read-out: Imipenem MIC): 16 µg/mL | MIC (Providencia stuartii; isolate ESDY-4559 (VIM), read-out: Imipenem MIC): 4 µg/mL | MIC (Providencia stuartii; isolate ESDY-4563 (VIM, VEB), read-out: Imipenem MIC): 4 µg/mL | MIC (Escherichia coli; isolate TZAN-116 (VIM), read-out: Imipenem MIC): 4 µg/mL | MIC (Escherichia coli; isolate TZAN-541 (VIM), read-out: Imipenem MIC): 4 µg/mL | MIC (Acinetobacter baumannii; isolate TZAN-40 (VIM, OXA-58)): 4 µg/mL | MIC (Acinetobacter baumannii; isolate TZAN-42 (VIM, OXA-58)): 8 µg/mL | MIC (Serratia marcescens; read-out: Imipenem MIC): 16 µg/mL | MIC (Proteus mirabilis; Table 5, Pr m ESDY 15315 (VIM-1, CMY), read-out: Imipenem MIC): 16 µg/mL | MIC (Proteus mirabilis; isolate ALX-13 (VIM, VEB), read-out: Imipenem MIC): 8 µg/mL | MIC (Proteus mirabilis; isolate ESDY-17 (VIM, CMY), read-out: Imipenem MIC): 4 µg/mL | MIC (Proteus mirabilis; isolate ESDY-15184 (VIM, CMY), read-out: Imipenem MIC): 8 µg/mL | MIC (Proteus mirabilis; isolate ESDY-15315 (VIM, CMY), read-out: Imipenem MIC): 16 µg/mL | MIC (Enterobacter gergoviae; isolate AK-5227 (VIM, CMY)): 8 µg/mL | MIC (Enterobacter gergoviae; isolate AK-5240 (VIM, CMY)): 8 µg/mL

CO[C@@H]1[C@@H](OC)[C@H]2O[C@H]3[C@H](OC)[C@@H](OC)[C@@H](O[C@H]4[C@H](OC)[C@@H](OC)[C@@H](O[C@H]5[C@H](OC)[C@@H](OC)[C@@H](O[C@H]6[C@H](OC)[C@@H](OC)[C@@H](O[C@H]7[C@H](OC)[C@@H](OC)[C@@H](O[C@@H]1[C@@H](CN(CC(=O)O)CC(=O)O)O2)O[C@@H]7CN(CC(=O)O)CC(=O)O)O[C@@H]6CN(CC(=O)O)CC(=O)O)O[C@@H]5CN(CC(=O)O)CC(=O)O)O[C@@H]4CN(CC(=O)O)CC(=O)O)O[C@@H]3CN(CC(=O)O)CC(=O)O [α-IDACYD]
Imipenem + α-IDACYD MIC (Klebsiella pneumoniae; Kpn ESDY 5742 (IMP-1)): <0.25 µg/mL | Meropenem + α-IDACYD MIC (Klebsiella pneumoniae; Kpn ESDY 5742 (IMP-1)): <0.25 µg/mL | Imipenem + α-IDACYD MIC (Klebsiella pneumoniae; Kpn LA 34 (VIM-1 CMY)): <0.5 µg/mL | Meropenem + α-IDACYD MIC (Klebsiella pneumoniae; Kpn LA 34 (VIM-1 CMY)): <0.5 µg/mL | Imipenem + α-IDACYD MIC (Klebsiella pneumoniae; Kpn LA 82/16 (VIM-1)): <0.25 µg/mL | Meropenem + α-IDACYD MIC (Klebsiella pneumoniae; Kpn LA 82/16 (VIM-1)): <0.25 µg/mL | Imipenem + α-IDACYD MIC (Klebsiella pneumoniae; Kpn LA 109/16 (VIM-1)): <0.25 µg/mL | Meropenem + α-IDACYD MIC (Klebsiella pneumoniae; Kpn LA 109/16 (VIM-1)): <0.25 µg/mL | Imipenem + α-IDACYD MIC (Klebsiella pneumoniae; Kpn LA419/16 (NDM-1)): <0.25 µg/mL | Meropenem + α-IDACYD MIC (Klebsiella pneumoniae; Kpn LA419/16 (NDM-1)): <0.25 µg/mL
